Assay results as given in ChEMBL document CHEMBL1141584, “Synthesis, biological evaluation and molecular modelling studies of methyleneimidazole substituted biaryls as inhibitors of human 17alpha-hydroxylase-17,20-lyase (CYP17). Part I: Heterocyclic modifications of the core structure” (Bioorg Med Chem, 2008).

What was measured:
[1] = target: T1, Steroid 17-alpha-hydroxylase/17,20 lyase (Homo sapiens, UniProt P05093); experiment: Inhibition of human CYP17 expressed in Escherichia coli co-expressed with NADPH-P450 reductase at 0.2 uM
T1 sequence (P05093 whole entry): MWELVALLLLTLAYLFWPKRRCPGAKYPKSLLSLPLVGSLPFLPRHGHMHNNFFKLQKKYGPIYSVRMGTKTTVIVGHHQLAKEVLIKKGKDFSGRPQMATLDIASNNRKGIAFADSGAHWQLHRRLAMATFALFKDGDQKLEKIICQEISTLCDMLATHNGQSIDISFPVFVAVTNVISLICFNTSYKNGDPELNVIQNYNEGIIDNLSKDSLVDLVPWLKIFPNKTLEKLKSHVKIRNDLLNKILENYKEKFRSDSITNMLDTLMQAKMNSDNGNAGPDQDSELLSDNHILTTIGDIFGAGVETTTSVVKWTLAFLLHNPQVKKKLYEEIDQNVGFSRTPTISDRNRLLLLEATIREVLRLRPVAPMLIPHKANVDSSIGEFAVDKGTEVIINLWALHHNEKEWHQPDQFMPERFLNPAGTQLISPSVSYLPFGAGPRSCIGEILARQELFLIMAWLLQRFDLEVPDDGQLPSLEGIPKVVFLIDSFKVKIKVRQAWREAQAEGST

[2] = target: T1, Steroid 17-alpha-hydroxylase/17,20 lyase; experiment: Inhibition of human CYP17 expressed in Escherichia coli co-expressed with NADPH-P450 reductase at 2 uM
[3] = target: T1, Steroid 17-alpha-hydroxylase/17,20 lyase; experiment: Inhibition of human CYP17 expressed in Escherichia coli co-expressed with NADPH-P450 reductase at 1 uM
CYP2C19 [4] = target: T2, CYP2C19 (Homo sapiens, UniProt P33261); experiment: Inhibition of recombinant CYP2C19 at 10 uM; format: ADME
T2 sequence (P33261 whole entry): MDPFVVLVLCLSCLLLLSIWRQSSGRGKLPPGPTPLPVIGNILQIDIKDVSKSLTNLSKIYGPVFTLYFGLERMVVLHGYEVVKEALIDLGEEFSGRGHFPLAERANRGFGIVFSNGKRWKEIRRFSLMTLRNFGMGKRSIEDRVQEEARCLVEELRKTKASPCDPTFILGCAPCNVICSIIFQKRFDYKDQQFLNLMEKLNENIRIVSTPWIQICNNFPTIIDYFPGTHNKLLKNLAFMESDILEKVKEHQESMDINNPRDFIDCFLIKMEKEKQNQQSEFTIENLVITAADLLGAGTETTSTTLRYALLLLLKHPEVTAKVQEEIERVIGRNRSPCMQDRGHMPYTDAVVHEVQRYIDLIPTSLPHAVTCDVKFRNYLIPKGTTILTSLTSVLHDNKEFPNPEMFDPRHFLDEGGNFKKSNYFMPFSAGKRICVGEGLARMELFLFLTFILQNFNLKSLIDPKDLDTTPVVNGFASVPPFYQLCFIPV

CYP2B6 [5] = target: T3, CYP2B6 (Homo sapiens, UniProt P20813); experiment: Inhibition of recombinant CYP2B6 at 1 uM; format: ADME
T3 sequence (P20813 whole entry): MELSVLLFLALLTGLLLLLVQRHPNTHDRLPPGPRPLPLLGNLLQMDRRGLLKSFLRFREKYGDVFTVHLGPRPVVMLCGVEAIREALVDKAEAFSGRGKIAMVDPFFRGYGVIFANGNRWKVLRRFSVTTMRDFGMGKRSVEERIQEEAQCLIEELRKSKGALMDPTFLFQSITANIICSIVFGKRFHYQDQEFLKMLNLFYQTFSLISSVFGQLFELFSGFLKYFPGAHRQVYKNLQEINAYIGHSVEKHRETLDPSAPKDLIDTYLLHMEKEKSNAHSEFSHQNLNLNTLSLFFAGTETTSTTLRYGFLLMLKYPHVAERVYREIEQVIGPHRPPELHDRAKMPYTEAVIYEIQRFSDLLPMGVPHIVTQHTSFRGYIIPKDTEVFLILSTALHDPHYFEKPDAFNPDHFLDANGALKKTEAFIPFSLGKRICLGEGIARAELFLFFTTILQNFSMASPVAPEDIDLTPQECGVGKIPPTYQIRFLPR

CYP2B6 [6] = target: T3, CYP2B6; experiment: Inhibition of recombinant CYP2B6 at 10 uM; format: ADME
CYP3A4 [7] = target: T4, CYP3A4 (Homo sapiens, UniProt P08684); experiment: Inhibition of recombinant CYP3A4 at 10 uM; format: ADME
T4 sequence (P08684 whole entry): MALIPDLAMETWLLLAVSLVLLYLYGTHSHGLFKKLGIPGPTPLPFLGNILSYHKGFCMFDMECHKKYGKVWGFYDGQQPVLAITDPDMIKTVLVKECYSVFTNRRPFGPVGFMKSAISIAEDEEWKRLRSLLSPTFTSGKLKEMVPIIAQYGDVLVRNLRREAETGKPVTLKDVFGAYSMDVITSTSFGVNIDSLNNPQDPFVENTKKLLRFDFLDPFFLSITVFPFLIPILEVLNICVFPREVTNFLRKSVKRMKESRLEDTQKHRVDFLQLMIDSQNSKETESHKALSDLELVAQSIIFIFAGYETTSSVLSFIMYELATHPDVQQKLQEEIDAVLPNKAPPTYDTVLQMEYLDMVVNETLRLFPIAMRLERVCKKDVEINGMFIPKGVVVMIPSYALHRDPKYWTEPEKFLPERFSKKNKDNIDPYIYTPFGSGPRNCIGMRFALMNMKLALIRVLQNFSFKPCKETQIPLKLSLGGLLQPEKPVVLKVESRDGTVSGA

[8] = target: T1, Steroid 17-alpha-hydroxylase/17,20 lyase; experiment: Inhibition of human CYP17 expressed in Escherichia coli co-expressed with NADPH-P450 reductase
CYP3A4 [9] = target: T4, CYP3A4; experiment: Inhibition of recombinant CYP3A4 at 1 uM; format: ADME
CYP1A2 [10] = target: T5, CYP1A2 (Homo sapiens, UniProt P05177); experiment: Inhibition of recombinant CYP1A2 at 1 uM; format: ADME
T5 sequence (P05177 whole entry): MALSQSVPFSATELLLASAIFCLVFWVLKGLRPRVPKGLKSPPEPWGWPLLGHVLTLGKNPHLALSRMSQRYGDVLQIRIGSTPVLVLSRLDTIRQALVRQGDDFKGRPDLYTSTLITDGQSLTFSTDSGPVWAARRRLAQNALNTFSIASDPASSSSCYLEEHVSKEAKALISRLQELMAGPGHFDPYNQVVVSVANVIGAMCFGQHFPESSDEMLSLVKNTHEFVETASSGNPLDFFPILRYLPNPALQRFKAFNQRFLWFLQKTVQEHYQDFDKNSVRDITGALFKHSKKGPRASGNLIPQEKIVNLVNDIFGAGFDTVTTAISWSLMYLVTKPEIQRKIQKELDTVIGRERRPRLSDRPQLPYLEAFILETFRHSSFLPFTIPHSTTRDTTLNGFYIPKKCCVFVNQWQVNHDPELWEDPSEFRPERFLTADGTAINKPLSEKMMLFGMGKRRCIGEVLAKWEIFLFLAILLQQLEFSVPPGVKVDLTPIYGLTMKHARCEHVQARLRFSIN

CYP1A2 [11] = target: T5, CYP1A2; experiment: Inhibition of recombinant CYP1A2 at 10 uM; format: ADME
CYP2C9 [12] = target: T6, CYP2C9 (Homo sapiens, UniProt P11712); experiment: Inhibition of recombinant CYP2C9 at 1 uM; format: ADME
T6 sequence (P11712 whole entry): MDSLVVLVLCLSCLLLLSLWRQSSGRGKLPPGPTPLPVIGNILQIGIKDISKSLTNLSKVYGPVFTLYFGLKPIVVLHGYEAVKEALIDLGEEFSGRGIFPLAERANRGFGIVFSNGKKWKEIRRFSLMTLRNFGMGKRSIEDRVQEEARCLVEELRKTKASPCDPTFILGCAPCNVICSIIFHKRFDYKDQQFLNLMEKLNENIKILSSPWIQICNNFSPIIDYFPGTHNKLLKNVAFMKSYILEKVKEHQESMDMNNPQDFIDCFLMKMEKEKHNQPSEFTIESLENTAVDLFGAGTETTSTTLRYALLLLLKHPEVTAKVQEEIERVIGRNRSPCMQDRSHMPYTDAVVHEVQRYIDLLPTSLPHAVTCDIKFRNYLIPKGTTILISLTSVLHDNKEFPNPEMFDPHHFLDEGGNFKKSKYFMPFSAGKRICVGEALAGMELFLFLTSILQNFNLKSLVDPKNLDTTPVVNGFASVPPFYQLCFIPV

CYP2C9 [13] = target: T6, CYP2C9; experiment: Inhibition of recombinant CYP2C9 at 10 uM; format: ADME
CYP2C19 [14] = target: T2, CYP2C19; experiment: Inhibition of recombinant CYP2C19 at 1 uM; format: ADME
CYP2D6 [15] = target: T7, CYP2D6 (Homo sapiens, UniProt P10635); experiment: Inhibition of recombinant CYP2D6 at 1 uM; format: ADME
T7 sequence (P10635 whole entry): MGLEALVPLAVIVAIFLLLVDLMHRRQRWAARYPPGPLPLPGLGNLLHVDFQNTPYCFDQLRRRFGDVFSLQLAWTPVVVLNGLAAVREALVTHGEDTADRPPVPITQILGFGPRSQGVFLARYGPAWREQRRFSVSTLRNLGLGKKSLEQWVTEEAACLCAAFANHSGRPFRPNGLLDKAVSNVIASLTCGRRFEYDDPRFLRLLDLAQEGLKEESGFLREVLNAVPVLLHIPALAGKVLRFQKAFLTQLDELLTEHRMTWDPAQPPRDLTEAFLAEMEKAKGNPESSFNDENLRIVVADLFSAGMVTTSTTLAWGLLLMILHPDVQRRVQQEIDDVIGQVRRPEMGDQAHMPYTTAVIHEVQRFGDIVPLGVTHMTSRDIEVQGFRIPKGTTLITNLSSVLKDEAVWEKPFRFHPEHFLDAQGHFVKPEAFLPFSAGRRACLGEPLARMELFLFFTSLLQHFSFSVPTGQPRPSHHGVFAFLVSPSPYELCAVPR

CYP2D6 [16] = target: T7, CYP2D6; experiment: Inhibition of recombinant CYP2D6 at 10 uM; format: ADME
[17] = Terminal half life in Wistar rat plasma at 50 mg/kg, po; format: ADME, organism-based; design: dose 50 mg/kg, route oral
[18] = Tmax in Wistar rat at 50 mg/kg, po; format: ADME, organism-based; design: dose 50 mg/kg, route oral; conditions: in vivo
[19] = Cmax in Wistar rat at 50 mg/kg, po; format: ADME, organism-based; design: dose 50 mg/kg, route oral; conditions: in vivo
[20] = AUC (0 to infinity) in Wistar rat at 50 mg/kg, po; format: ADME, organism-based; design: time infinity, dose 50 mg/kg, route oral; conditions: plasma
[21] = Total body clearance in Wistar rat at 50 mg/kg, po; format: ADME, organism-based; design: dose 50 mg/kg, route oral; conditions: in vivo
[22] = target: T8, Steroid 17-alpha-hydroxylase/17,20 lyase (Rattus norvegicus, UniProt P11715); experiment: Inhibition of Sprague-Dawley rat testicular CYP17
T8 sequence (P11715 whole entry): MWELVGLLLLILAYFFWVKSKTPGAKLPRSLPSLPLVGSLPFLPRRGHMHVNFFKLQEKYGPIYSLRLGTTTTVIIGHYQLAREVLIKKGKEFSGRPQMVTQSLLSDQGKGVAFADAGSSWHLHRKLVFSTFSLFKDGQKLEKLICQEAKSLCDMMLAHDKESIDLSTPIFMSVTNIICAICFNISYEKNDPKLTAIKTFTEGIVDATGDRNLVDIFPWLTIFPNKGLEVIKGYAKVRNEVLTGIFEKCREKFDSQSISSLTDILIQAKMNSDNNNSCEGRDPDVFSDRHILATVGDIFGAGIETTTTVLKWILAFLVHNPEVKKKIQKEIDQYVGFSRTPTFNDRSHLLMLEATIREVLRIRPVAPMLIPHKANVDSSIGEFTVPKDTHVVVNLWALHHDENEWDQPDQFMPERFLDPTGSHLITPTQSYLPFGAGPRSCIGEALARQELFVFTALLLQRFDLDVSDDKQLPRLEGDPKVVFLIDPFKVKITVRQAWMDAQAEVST

Rattus norvegicus [23] = experiment: Reduction of testosterone level in Wistar rat plasma at 50 mg/kg, po after 1 hr by ELISA relative to pretreatment value; format: functional; design: scale not given: the % may be the effect or the level left
Rattus norvegicus [24] = experiment: Reduction of testosterone level in Wistar rat at 50 mg/kg, po after 4 hrs by ELISA relative to pretreatment value; format: functional; design: scale not given: the % may be the effect or the level left
Rattus norvegicus [25] = experiment: Reduction of testosterone level in Wistar rat plasma at 50 mg/kg, po after 6 hrs by ELISA relative to pretreatment value; format: functional; design: scale not given: the % may be the effect or the level left
Rattus norvegicus [26] = experiment: Reduction of testosterone level in Wistar rat plasma at 50 mg/kg, po after 8 hrs by ELISA relative to pretreatment value; format: functional; design: scale not given: the % may be the effect or the level left

COc1ccc(-c2csc(Cn3ccnc3)c2)cc1
inhibition at 0.2 µM [1]: 0%
inhibition at 2 µM [2]: 13%

CC(=O)N1CCN(c2ccc(OCC3COC(Cn4ccnc4)(c4ccc(Cl)cc4Cl)O3)cc2)CC1 (stereo not drawn) [KETOCONAZOLE]
inhibition at 1 µM [3]: 19%
inhibition at 10 µM (CYP2C19 [4]): 79%
inhibition at 1 µM (CYP2B6 [5]): 11%
inhibition at 10 µM (CYP2B6 [6]): 57%

CCC(c1ccc(-c2ccc(SC)s2)cc1)n1ccnc1 (stereo not drawn)
inhibition at 0.2 µM [1]: 2%
inhibition at 2 µM [2]: 3%

CCC(c1ccc(-c2cscc2C)cc1F)n1ccnc1 (stereo not drawn)
inhibition at 0.2 µM [1]: 41%
inhibition at 2 µM [2]: 92%
inhibition at 10 µM (CYP3A4 [7]): 97%
IC50 [8]: 0.236 µM
inhibition at 1 µM (CYP3A4 [9]): 88%

CCC(c1cc(-c2ccc(F)c(F)c2)cs1)n1ccnc1 (stereo not drawn)
inhibition at 0.2 µM [1]: 17%
inhibition at 2 µM [2]: 68%
inhibition at 1 µM (CYP1A2 [10]): 93%
inhibition at 10 µM (CYP1A2 [11]): 96%
inhibition at 1 µM (CYP2C9 [12]): 94%
inhibition at 10 µM (CYP2C9 [13]): 100%
inhibition at 1 µM (CYP2C19 [14]): 95%
inhibition at 10 µM (CYP2C19 [4]): 97%

COc1ccc(-c2csc(Cn3ccnc3)c2)cc1OC
inhibition at 0.2 µM [1]: 0%
inhibition at 2 µM [2]: 14%

Cc1cscc1-c1ccc(Cn2ccnc2)cc1
inhibition at 0.2 µM [1]: 0%
inhibition at 2 µM [2]: 27%

ClCc1ccc(-c2ccc(Cn3ccnc3)cc2)cn1
inhibition at 0.2 µM [1]: 9%
inhibition at 2 µM [2]: 24%

C[C@]12CC[C@H](O)CC1=CC[C@@H]1[C@@H]2CC[C@]2(C)C(c3cccnc3)=CC[C@@H]12 [ABIRATERONE]
inhibition at 10 µM (CYP3A4 [7]): 25%
inhibition at 10 µM (CYP2C19 [4]): 21%
inhibition at 1 µM (CYP2B6 [5]): 2%
inhibition at 10 µM (CYP2B6 [6]): 11%
inhibition at 1 µM (CYP2D6 [15]): 7%
inhibition at 10 µM (CYP2D6 [16]): 7%
half-life [17]: 1.6 h
Tmax [18]: 2 h
Cmax [19]: 592 ng/mL
AUC(0-inf) [20]: 4020 ng·h/mL
CL/F [21]: 187 mL/min/kg
IC50 [22]: 0.22 µM
inhibition at 1 µM (CYP3A4 [9]): 4%

CC(c1ccc(N2CCOCC2)cc1)n1ccnc1 (stereo not drawn)
inhibition at 0.2 µM [1]: 5%
inhibition at 2 µM [2]: 12%

COc1ccc(-c2ccc(Cn3ccnc3)cn2)cc1
inhibition at 0.2 µM [1]: 0%
inhibition at 2 µM [2]: 0%

CCC(c1ccc(-c2cscc2C)cc1)n1ccnc1 (stereo not drawn)
inhibition at 0.2 µM [1]: 27%
inhibition at 2 µM [2]: 84%
IC50 [8]: 0.584 µM

c1cn(Cc2ccc(-c3ccoc3)cc2)cn1
inhibition at 0.2 µM [1]: 3%
inhibition at 2 µM [2]: 29%

Nc1cccc(-c2ccc(Cn3ccnc3)cn2)c1
inhibition at 0.2 µM [1]: 2%
inhibition at 2 µM [2]: 3%

COc1cccc(-c2ccc(Cn3ccnc3)cn2)c1
inhibition at 0.2 µM [1]: 0%
inhibition at 2 µM [2]: 1%

CC(c1ccc(-c2ccsc2)cc1)n1ccnc1 (stereo not drawn)
inhibition at 0.2 µM [1]: 21%
inhibition at 2 µM [2]: 67%
inhibition at 10 µM (CYP3A4 [7]): 94%
inhibition at 1 µM (CYP1A2 [10]): 97%
inhibition at 10 µM (CYP1A2 [11]): 100%
inhibition at 1 µM (CYP2C9 [12]): 75%
inhibition at 10 µM (CYP2C9 [13]): 89%
inhibition at 1 µM (CYP2C19 [14]): 87%
inhibition at 10 µM (CYP2C19 [4]): 99%
inhibition at 1 µM (CYP2B6 [5]): 49%
inhibition at 10 µM (CYP2B6 [6]): 87%
inhibition at 1 µM (CYP2D6 [15]): 17%
inhibition at 10 µM (CYP2D6 [16]): 68%
Activity (Rattus norvegicus [23]): 30.9%
Activity (Rattus norvegicus [24]): 25.9%
Activity (Rattus norvegicus [25]): 29.7%
Activity (Rattus norvegicus [26]): 34.1%
half-life [17]: 9.5 h
Tmax [18]: 1 h
Cmax [19]: 1280 ng/mL
AUC(0-inf) [20]: 24900 ng·h/mL
CL/F [21]: 33.5 mL/min/kg
IC50 [8]: 0.953 µM
IC50 [22]: 0.676 µM
inhibition at 1 µM (CYP3A4 [9]): 80%
